Data taken from patent US11014895B2, “Heterocyclic urea compound, and drug composition and application thereof” (CHINA PHARMACEUTICAL UNIVERSITY, priority 2017, dated 2021).

Experiments:
IDO1 enzyme = IDO1 enzyme (Homo sapiens, UniProt P14902); experiment: Determination of biochemical activity of IDO1 enzyme (absorbance at 320 nm); conditions: room temperature, 3 hours
Summary of the method: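 Absorbance at 320 nm was measured after a 3-hour room-temperature reaction of enzyme with compound. Phosphate buffer at pH 7-8 was used; inhibition was derived from the absorption ratio and fitted to IC50.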

[1] = target: T1, IDO1 enzyme in the Hela cell (Homo sapiens, UniProt P14902); experiment: Cell activity: interferon γ-stimulated Hela cells, absorbance of supernatant at 480 nm; assay type: cell-based; conditions: interferon γ 100 ng/ml, 72 hours
T1 construct: endogenous in cells; host or cells: HeLa cells stimulated with interferon γ (100 ng/ml)
T1 sequence (P14902 whole entry): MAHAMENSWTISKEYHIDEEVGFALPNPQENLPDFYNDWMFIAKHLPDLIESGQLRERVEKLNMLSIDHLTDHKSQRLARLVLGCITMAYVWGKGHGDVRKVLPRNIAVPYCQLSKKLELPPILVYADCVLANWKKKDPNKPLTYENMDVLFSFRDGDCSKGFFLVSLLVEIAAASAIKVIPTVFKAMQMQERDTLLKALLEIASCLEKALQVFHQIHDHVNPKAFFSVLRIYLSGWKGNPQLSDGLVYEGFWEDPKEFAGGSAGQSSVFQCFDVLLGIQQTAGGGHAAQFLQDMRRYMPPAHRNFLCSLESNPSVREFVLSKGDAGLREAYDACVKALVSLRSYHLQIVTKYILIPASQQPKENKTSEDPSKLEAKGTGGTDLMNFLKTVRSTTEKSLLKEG
Summary of the method: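 Kynurenine-type readout: supernatant from IFN-γ-stimulated (100 ng/ml final) HeLa cells, 72 h with compound, was acid-hydrolysed with trichloroacetic acid (50 °C, 30 min). After centrifugation, 2% dimethylaminobenzaldehyde/acetic acid added and absorbance measured at 480 nm.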

IDO1 enzyme, sequence (P14902 whole entry): as above

Row | Compound | IC50 (IDO1 enzyme) | IC50 [1]
1 | COc1ccc(NC(=N)Nc2nonc2/C(=N/O)Nc2ccc(F)c(Br)c2)cc1 [Embodiment 139, (Z)-1-(4-(N-(3-bromo-4-fluorophenyl)-N′-hydroxyaminoiminomethyl)-1,2,5-oxadiazole-3-substituted)-3-(4-methoxyphenyl)guanidine] | < 0.001 µM | < 0.001 µM
2 | O=C(Nc1nocc1/C(=N/O)Nc1ccc(F)c(Br)c1)NC1CC1 [Embodiment 86, (Z)-1-(4-(N-(3-bromo-4-fluorophenyl)-N′-hydroxyaminoiminomethyl)-isoxazole-3-substituted)-3-(cyclopropyl)urea] | > 1 µM | > 1 µM
3 | N=C(Nc1conc1/C(=N/O)Nc1ccc(F)c(Cl)c1)NC1CCCCC1 [Embodiment 156, (Z)-1-(4-(N-(3-chloro-4-fluorophenyl)-N′-hydroxyaminoiminomethyl)-isoxazole-3-substituted)-4-cyclohexylguanidine] | 0.1 to 1 µM | 0.1 to 1 µM
4 | O=C(NCCCO)Nc1conc1/C(=N/O)Nc1ccc(F)c(Br)c1 [Embodiment 109] | < 0.001 µM | < 0.001 µM
5 | O/N=C(\Nc1ccc(F)c(Cl)c1)c1nocc1NC(=S)Nc1ccccc1 [Embodiment 131, (Z)-1-(4-(N-(3-chloro-4-fluorophenyl)-N′-hydroxyaminoiminomethyl)-isoxazole-3-substituted)-4-(phenyl)thiourea] | 0.1 to 1 µM | 0.1 to 1 µM
6 | O=C(Nc1cocc1/C(=N/O)Nc1ccc(F)c(Br)c1)Nc1c[nH]c2ccccc12 [Embodiment 74, (Z)-1-(4-(N-(3-bromo-4-fluorophenyl)-N′-hydroxyaminoiminomethyl)-furan-3-substituted)-3-(3-aminoindole)urea] | 0.1 to 1 µM | 0.1 to 1 µM
7 | O/N=C(\Nc1ccc(F)c(Br)c1)c1conc1NC(=S)Nc1ccccc1 [Embodiment 134, (Z)-1-(4-(N-(3-bromo-4-fluorophenyl)-N′-hydroxyaminoiminomethyl)-isoxazole-3-substituted)-3-(phenyl)thiourea] | 0.1 to 1 µM | 0.1 to 1 µM
8 | (Z)-1-(4-(N-(3-bromo-4-fluorophenyl)-N′-hydroxyaminoiminomethyl)-isoxazole-3-substituted)-3-phenylurea [Embodiment 81] | 0.1 to 1 µM | 0.1 to 1 µM
9 | COc1ccc(NC(=O)Nc2nonc2/C(=N/O)Nc2ccc(F)c(Cl)c2)cc1 [Embodiment 22, (Z)-1-(4-(N-(3-chloro-4-fluorophenyl)-N′-hydroxyaminoiminomethyl)-1,2,5-oxadiazole-3-substituted)-3-(4-methoxyphenyl)urea] | 0.1 to 1 µM | 0.1 to 1 µM
10 | O=C(Nc1nonc1/C(=N/O)Nc1ccc(F)c(Br)c1)Nc1coc2ccccc12 [Embodiment 38, (Z)-1-(4-(N-(3-bromo-4-fluorophenyl)-N′-hydroxyaminoiminomethyl)-1,2,5-oxadiazole-3-substituted)-3-(benzofuran-3-substituted)urea] | 0.1 to 1 µM | 0.1 to 1 µM
11 | NCCNC(=O)Nc1conc1/C(=N/O)Nc1ccc(F)c(Br)c1 [Embodiment 111] | < 0.001 µM | < 0.001 µM
12 | O=C(Nc1nocc1/C(=N/O)Nc1ccc(F)c(Br)c1)NC1CCC(O)CC1 (stereo not shown) [Embodiment 84, (Z)-1-(4-(N-(3-bromo-4-fluorophenyl)-N′-hydroxyaminoiminomethyl)-isoxazole-3-substituted)-3-(4-hydroxycyclohexyl)urea] | 0.1 to 1 µM | 0.1 to 1 µM
13 | N=C(Nc1ccc(O)cc1)Nc1nonc1/C(=N/O)Nc1ccc(F)c(Br)c1 [Embodiment 141, (Z)-1-(4-(N-(3-bromo-4-fluorophenyl)-N′-hydroxyaminoiminomethyl)-1,2,5-oxadiazole-3-substituted)-3-(4-hydroxyphenyl)guanidine] | < 0.001 µM | < 0.001 µM
14 | O=C(Nc1nocc1/C(=N/O)Nc1ccc(F)c(Br)c1)NC1CCCCC1 [Embodiment 82, (Z)-1-(4-(N-(3-bromo-4-fluorophenyl)-N′-hydroxyaminoiminomethyl)-isoxazole-3-substituted)-3-(cyclohexyl)urea] | 0.1 to 1 µM | 0.1 to 1 µM
